According to US9067934B2, “Bicyclic pyridinones” (Pfizer Inc., priority 2011, dated 2015):
Where a name gives a salt, the structure may show the parent alone.

Test system: production of amyloid beta protein Aβ(1-42) (γ-secretase) in human WT-APP overexpressing CHO cells
Assay: Cell-Based γ-Secretase Assay with ELISA Readout
Details: human WT-APP overexpressing CHO cells, ~24 hours at 37° C., Aβ(1-42) ELISA; footnotes: a = geometric mean of >15 determinations, b = single determination, c = geometric mean of 7-15 determinations; read-out: Aβ 42B IC50 (Geometric Mean of 2-6 Determinations)
Experimental: Cell-Based γ-Secretase Assay with ELISA Readout
The ability of compounds to modulate production of amyloid beta protein Aβ(1-42) was determined using human WT-APP overexpressing CHO cells. Cells were plated at 22,000 cells/100 μL well in 96 well tissue culture treated, clear plates (Falcon) in DMEM/F12 based medium and incubated for 24 hours at 37° C. Compounds for testing were diluted in 100% DMSO to achieve an eleven points, half log, dose response for IC50 determinations. Compounds were added in fresh medium to achieve 1% final DMSO. Appropriate vehicle or inhibitor controls were added into control wells individually to obtain minimum or maximum inhibition values, respectively, for the assay signal window before the plates were incubated for ˜24 hours at 37° C. This procedure produces conditioned media in each well which is tested for Aβ(1-42) levels in the ELISA detection step described next. The remaining cell cultures in each well are also tested for cell toxicity as described below.
Coating of ELISA assay plates was initiated by addition of 50 μL/well of an in-house Aβ(1-42) specific antibody at (3 μg/mL) in 0.1 M NaHCO3 (pH 9.0) into black 384-well Maxisorp® plates (Nunc) and incubated overnight at 4° C. The capture antibody was then aspirated from the ELISA assay plates and plates were washed 4×100 μL with Wash Buffer (Dulbecco's PBS, 0.05% Tween 20). 90 μL/well of Blocking Buffer (Dulbecco's PBS, 1.0% BSA (Sigma A7030)) was then added to plates. Ambient temperature incubation was allowed to proceed for a minimum of two hours. Blocking buffer was then removed and 20 μL/well Assay Buffer (Dulbecco's PBS, 1.0% BSA (Sigma A7030), 0.05% Tween 20) was then added. At this point, 40 μL (in duplicate) of experimental conditioned media (described above) were transferred into wells of the blocked ELISA plates containing the capture antibody, followed by overnight incubation at 4° C. Cell toxicity was also measured in the corresponding remaining cells after removal of the conditioned media for the Aβ(1-42) assay by a colorimetric cell proliferation assay (CellTiter 96® AQueous One Solution Cell Proliferation Assay, Promega) according to the manufacturer's instructions.
After overnight incubation of the ELISA assay plates at 4° C., unbound Aβ peptides were removed via (4×100 μL) washes with Wash Buffer. Europium (Eu) labeled (custom labeled, Perkin Elmer) Aβ(1-16) 6e10 Monoclonal Antibody (Covance #SIG-39320) was added, (50 μL/well Eu-6e10 @ 1:10,000, 20 uM EDTA) in Assay Buffer. Incubation at ambient temperature for a minimum of 2 hours was followed by (4×100 μL) washes with Wash Buffer, before 30 μL/well of Delfia Enhancement Solution (Perkin Elmer) was added. Following an one hour ambient temperature incubation, the plates were read on an EnVision plate reader (Perkin Elmer) using standard DELFIA TRF settings. Data analysis including inhibitory IC50 determination was performed using nonlinear regression fit analysis (in-house software) and the appropriate plate mean values for the maximum and minimum inhibition controls.

Question: Which IC50 does the source give for `Cc1cn(-c2ccc3n(c2=O)CCN(CCOc2ccc(Cl)cc2C(F)(F)F)C3=O)cn1` [Example 22, 2-{2-[4-chloro-2-(trifluoromethyl)phenoxy]ethyl}-7-(4-methyl-1H-imidazol-1-yl)-3,4-dihydro-2H-pyrido[1,2-a]pyrazine-1,6-dione] here?
Answer: The IC50 was 103 nM.

Question: For `Cc1cn(-c2ccc3n(c2=O)CCN(CCOc2ccc(F)c(Cl)c2Cl)C3=O)cn1` [Example 23, 2-[2-(2,3-dichloro-4-fluorophenoxy)ethyl]-7-(4-methyl-1H-imidazol-1-yl)-3,4-dihydro-2H-pyrido[1,2-a]pyrazine-1,6-dione], which IC50 is on record?
Answer: Its IC50 is 173 nM.

Question: `Cc1cn(-c2ccc3n(c2=O)CCN(CCOc2ccccc2-c2cc(C)ns2)C3=O)cn1` [Example 24, 7-(4-methyl-1H-imidazol-1-yl)-2-{2-[2-(3-methylisothiazol-5-yl)phenoxy]ethyl}-3,4-dihydro-2H-pyrido[1,2-a]pyrazine-1,6-dione] was tested. Which IC50 did it give?
Answer: Its IC50 is 104 nM.

Question: For `Cc1cn(-c2ccc3n(c2=O)CCN(CCOc2ccccc2C2CCC2)C3=O)cn1` [Example 25, 2-[2-(2-cyclobutylphenoxy)ethyl]-7-(4-methyl-1H-imidazol-1-yl)-3,4-dihydro-2H-pyrido[1,2-a]pyrazine-1,6-dione], which IC50 is on record?
Answer: Its IC50 is 73.2 nM.

Question: With `Cc1cn(-c2ccc3n(c2=O)CCN(CCOc2cccc4c2oc2ccccc24)C3=O)cn1` [Example 26, 2-[2-(dibenzo[b,d]furan-4-yloxy)ethyl]-7-(4-methyl-1H-imidazol-1-yl)-3,4-dihydro-2H-pyrido[1,2-a]pyrazine-1,6-dione] as the compound, how does the IC50 read?
Answer: The IC50 was 95.7 nM.

Question: Which IC50 does the source give for `Cc1cn(-c2ccc3n(c2=O)CCN(CCOc2ccc(Cl)c(Cl)c2Cl)C3=O)cn1` [Example 27, 7-(4-methyl-1H-imidazol-1-yl)-2-[2-(2,3,4-trichlorophenoxy)ethyl]-3,4-dihydro-2H-pyrido[1,2-a]pyrazine-1,6-dione] here?
Answer: The IC50 was 103 nM.

Question: How did the IC50 turn out when `Cc1cn(-c2ccc3n(c2=O)CCN(CCCOc2cc(C)c(Cl)c(C)c2)C3=O)cn1` [Example 28, 2-[3-(4-chloro-3,5-dimethylphenoxy)propyl]-7-(4-methyl-1H-imidazol-1-yl)-3,4-dihydro-2H-pyrido[1,2-a]pyrazine-1,6-dione] was run?
Answer: The IC50 was 31.9 nM.

Question: How did the IC50 turn out when `Cc1cn(-c2ccc3n(c2=O)CCN(CCOc2ccc(C(F)(F)F)cc2C(F)(F)F)C3=O)cn1` [Example 29, 2-{2-[2,4-bis(trifluoromethyl)phenoxy]ethyl}-7-(4-methyl-1H-imidazol-1-yl)-3,4-dihydro-2H-pyrido[1,2-a]pyrazine-1,6-dione] was run?
Answer: Its IC50 is 154 nM.

Question: With `Cc1cn(-c2ccc3n(c2=O)CCN(CCOc2cc(Cl)c(Cl)cc2Cl)C3=O)cn1` [Example 30, 7-(4-methyl-1H-imidazol-1-yl)-2-[2-(2,4,5-trichlorophenoxy)ethyl]-3,4-dihydro-2H-pyrido[1,2-a]pyrazine-1,6-dione] as the compound, how does the IC50 read?
Answer: Its IC50 is 132 nM.

Question: How did the IC50 turn out when `Cc1cn(-c2ccc3n(c2=O)CCN(CCOc2ccc(C(F)(F)F)nc2C(F)(F)F)C3=O)cn1` [Example 31, 2-(2-{[2,6-bis(trifluoromethyl)pyridin-3-yl]oxy}ethyl)-7-(4-methyl-1H-imidazol-1-yl)-3,4-dihydro-2H-pyrido[1,2-a]pyrazine-1,6-dione] was run?
Answer: Its IC50 is 96.8 nM.

Question: How did the IC50 turn out when `Cc1cn(-c2ccc3n(c2=O)CCN(CCCOc2ccccc2C(C)(C)C)C3=O)cn1` [Example 32, 2-[3-(2-tert-butylphenoxy)propyl]-7-(4-methyl-1H-imidazol-1-yl)-3,4-dihydro-2H-pyrido[1,2-a]pyrazine-1,6-dione, trifluoroacetate salt] was run?
Answer: Its IC50 is 143 nM.

Question: How did the IC50 turn out when `Cc1cn(-c2ccc3n(c2=O)CCN(CCOc2cccc(Cl)c2Cl)C3=O)cn1` [Example 33, 2-[2-(2,3-dichlorophenoxy)ethyl]-7-(4-methyl-1H-imidazol-1-yl)-3,4-dihydro-2H-pyrido[1,2-a]pyrazine-1,6-dione, trifluoroacetate salt] was run?
Answer: The IC50 was 194 nM.

Question: `Cc1cn(-c2ccc3n(c2=O)CCN(CCOc2ccccc2-c2ccccc2)C3=O)cn1` [Example 34, 2-[2-(biphenyl-2-yloxy)ethyl]-7-(4-methyl-1H-imidazol-1-yl)-3,4-dihydro-2H-pyrido[1,2-a]pyrazine-1,6-dione, trifluoroacetate salt] was tested. Which IC50 did it give?
Answer: The IC50 was 262 nM.

Question: How did the IC50 turn out when `Cc1cn(-c2ccc3n(c2=O)CCN(CCOc2ccc(F)c(C(F)(F)F)c2Cl)C3=O)cn1` [Example 35, 2-{2-[2-chloro-4-fluoro-3-(trifluoromethyl)phenoxy]ethyl}-7-(4-methyl-1H-imidazol-1-yl)-3,4-dihydro-2H-pyrido[1,2-a]pyrazine-1,6-dione, trifluoroacetate salt] was run?
Answer: The IC50 was 133 nM.

Question: Which IC50 does the source give for `Cc1cn(-c2ccc3n(c2=O)CCN(CCOc2ccccc2-c2csc(C)n2)C3=O)cn1` [Example 36, 7-(4-methyl-1H-imidazol-1-yl)-2-{2-[2-(2-methyl-1,3-thiazol-4-yl)phenoxy]ethyl}-3,4-dihydro-2H-pyrido[1,2-a]pyrazine-1,6-dione, trifluoroacetate salt] here?
Answer: Its IC50 is 302 nM.

Question: `Cc1cn(-c2ccc3n(c2=O)CCN(CCOc2ccccc2-c2sncc2C)C3=O)cn1` [Example 37, 7-(4-methyl-1H-imidazol-1-yl)-2-{2-[2-(4-methylisothiazol-5-yl)phenoxy]ethyl}-3,4-dihydro-2H-pyrido[1,2-a]pyrazine-1,6-dione, trifluoroacetate salt] was tested. Which IC50 did it give?
Answer: The IC50 was 219 nM.

Question: For `Cc1ccc(OCCN2CCn3c(ccc(-n4cnc(C)c4)c3=O)C2=O)c(-c2cc(C(F)(F)F)on2)c1` [Example 38, 7-(4-methyl-1H-imidazol-1-yl)-2-(2-{4-methyl-2-[5-(trifluoromethyl)isoxazol-3-yl]phenoxy}ethyl)-3,4-dihydro-2H-pyrido[1,2-a]pyrazine-1,6-dione, trifluoroacetate salt], which IC50 is on record?
Answer: Its IC50 is 293 nM.

Question: How did the IC50 turn out when `Cc1cn(-c2ccc3n(c2=O)CCN(CCOc2ccccc2-c2cc(C(F)(F)F)on2)C3=O)cn1` [Example 39, 7-(4-methyl-1H-imidazol-1-yl)-2-(2-{2-[5-(trifluoromethyl)isoxazol-3-yl]phenoxy}ethyl)-3,4-dihydro-2H-pyrido[1,2-a]pyrazine-1,6-dione, trifluoroacetate salt] was run?
Answer: The IC50 was 525 nM.

Question: How did the IC50 turn out when `Cc1cn(-c2ccc3n(c2=O)CCN(CCOc2ccccc2-c2csc(C(F)(F)F)n2)C3=O)cn1` [Example 40, 7-(4-methyl-1H-imidazol-1-yl)-2-(2-{2-[2-(trifluoromethyl)-1,3-thiazol-4-yl]phenoxy}ethyl)-3,4-dihydro-2H-pyrido[1,2-a]pyrazine-1,6-dione] was run?
Answer: The IC50 was 19.6 nM.

Question: For `Cc1cn(-c2ccc3n(c2=O)CCN(CCOc2ccccc2-c2coc(C)n2)C3=O)cn1` [Example 41, 7-(4-methyl-1H-imidazol-1-yl)-2-{2-[2-(2-methyl-1,3-oxazol-4-yl)phenoxy]ethyl}-3,4-dihydro-2H-pyrido[1,2-a]pyrazine-1,6-dione, trifluoroacetate salt], which IC50 is on record?
Answer: Its IC50 is 156 nM.

Question: How did the IC50 turn out when `Cc1cn(-c2ccc3n(c2=O)CCN(CCOc2cccc4oc5ccccc5c24)C3=O)cn1` [Example 42, 2-[2-(dibenzo[b,d]furan-1-yloxy)ethyl]-7-(4-methyl-1H-imidazol-1-yl)-3,4-dihydro-2H-pyrido[1,2-a]pyrazine-1,6-dione, trifluoroacetate salt] was run?
Answer: The IC50 was 5.31 nM.

Question: How did the IC50 turn out when `Cc1cn(-c2ccc3n(c2=O)CCN(CCOc2ccc(Cl)cc2-c2ccon2)C3=O)cn1` [Example 43, 2-[2-(4-chloro-2-isoxazol-3-ylphenoxy)ethyl]-7-(4-methyl-1H-imidazol-1-yl)-3,4-dihydro-2H-pyrido[1,2-a]pyrazine-1,6-dione, trifluoroacetate salt] was run?
Answer: Its IC50 is 283 nM.

Question: For `Cc1cn(-c2ccc3n(c2=O)CCN(CCOc2ccc(Cl)cc2C(C)(C)O)C3=O)cn1` [Example 44, 2-{2-[4-chloro-2-(1-hydroxy-1-methylethyl)phenoxy]ethyl}-7-(4-methyl-1H-imidazol-1-yl)-3,4-dihydro-2H-pyrido[1,2-a]pyrazine-1,6-dione, trifluoroacetate salt], which IC50 is on record?
Answer: The IC50 was 142 nM.

Question: For `Cc1cn(-c2ccc3n(c2=O)CCN(CCOc2ccc(Cl)c(F)c2C(F)(F)F)C3=O)cn1` [Example 45, 2-{2-[4-chloro-3-fluoro-2-(trifluoromethyl)phenoxy]ethyl}-7-(4-methyl-1H-imidazol-1-yl)-3,4-dihydro-2H-pyrido[1,2-a]pyrazine-1,6-dione, trifluoroacetate salt], which IC50 is on record?
Answer: Its IC50 is 66.3 nM.
